According to PubChem BioAssay AID743267 (Broad Institute, 2014):

Test system: human bronchial epithelial cells, CFTR corrector, plate reader
Experiment: rescue of ΔF508 CFTR function, airway epithelium – human bronchial epithelial cells, plate reader, cherry-pick, two tests, dose response (AID 743267)
Conditions: measured here: test 2 replicate run

Point of comparison: `COc1cc(OC)c2c(-c3cccc(-c4cccc(N)c4)c3)cc(=O)oc2c1`, AC50 3.43 µM. Against it:
- CCCC(=O)Nc1nc2ccc(NC(=O)c3c(F)c(F)c(OC)c(F)c3F)cc2s1 — 3-fold lower, 1.13 µM
- O=c1cc(-c2ccccc2)[nH]c2ccc(F)cc12 — higher, > 50 µM
- Cc1cc(Br)cc(/C=N/NC(=O)c2ccc3c(c2)OCO3)c1O — 2-fold higher, 6.69 µM
- CCOC(=O)c1ccc(N2CCOCC2)c(NC(=O)c2c(-c3ccccc3)noc2C)c1 — within 1.5-fold, 4.89 µM
- COC(=O)c1ccc(/C=C/c2c(-c3ccc(OC)cc3)oc3ccc(N4CCOCC4)cc23)cc1 — 4.7-fold higher, 16 µM
- CC1OC(OC2CC(O)C3(CO)C4C(O)CC5(C)C(C6=CC(=O)OC6)CCC5(O)C4CCC3(O)C2)C(O)C(O)C1O (stereo not drawn) — within 1.5-fold, 3.38 µM
- CC1(C)OC(c2ccccc2)=C/C(=C/C=C2C(=O)NC(=O)NC2=O)O1 — 7.2-fold higher, 24.8 µM
- CCN(CC)c1ccc2c(cc1=O)[C@@H](NC)CCc1cc(OC)c(OC)c(OC)c1-2 — 2.6-fold lower, 1.31 µM
- C/C(=N\Nc1ncnc2sc(C)c(C)c12)c1ccccn1 — 5.8-fold lower, 0.589 µM
- O=[N+]([O-])c1ccc(/C=C/C2=NN(c3ccccc3)C(c3ccco3)C2)o1 (stereo not drawn) — 5.3-fold higher, 18.1 µM
- Nc1ccn([C@@H]2O[C@H](C(=O)NCC(F)(F)F)[C@@H](O)[C@H]2O)c(=O)n1 — higher, > 50 µM
- CC1=NCCc2c1[nH]c1cc(O)ccc21 — 12-fold higher, 41.4 µM
- O=C(Nc1ccccc1)c1nc[nH]c1C(=O)Nc1ccccc1F — 8.3-fold higher, 28.3 µM
- COc1ccc(NC(=O)c2cc(S(=O)(=O)N3CCOCC3)ccc2C)cc1S(=O)(=O)N1CCOCC1 — higher, > 50 µM
- O=c1ccc2[n+]([O-])c3ccc(O)cc3oc-2c1 — 7.7-fold higher, 26.3 µM
- Cc1ccc(C)c(C2NC(=O)c3ccccc3N2)c1 (stereo not drawn) — within 1.5-fold, 2.91 µM
- COc1ccc(/C=C2/CCCc3ccccc3C2=O)cc1 — 1.8-fold lower, 1.92 µM
- COC(=O)c1cn(NC(=O)c2cc([N+](=O)[O-])ccc2F)c(=O)c2ccccc12 — 2.8-fold lower, 1.21 µM
- COc1cccc2c1C(=O)c1c(O)c3c(c(O)c1C2=O)CC(O)(C(=O)CO)CC3OC1CC(N(C)C)C(O)C(C)O1 (stereo not drawn) — 2.9-fold higher, 10.1 µM
- Cc1ccc(N2CC(C(=O)N(C)CC(=O)Nc3ccc(Cl)c(C(F)(F)F)c3)CC2=O)cc1 (stereo not drawn) — 9.7-fold higher, 33.3 µM
- Clc1ccc(CSc2nncn2-c2ccc3c(c2)OCCO3)cc1 — 2.8-fold higher, 9.62 µM
- CCOC(=O)C1CCCN(c2ccc([N+](=O)[O-])c3nonc23)C1 (stereo not drawn) — 6-fold higher, 20.7 µM
- COc1cc(NC(=O)N2CCNC2=O)cc(C(=O)Nc2cccc(C(F)(F)F)c2)c1 — within 1.5-fold, 5.11 µM
- Oc1ccc2ccccc2c1/C=C/c1ccc2c(Br)cc(Br)c(O)c2n1 — 6.3-fold higher, 21.5 µM
- COc1ccc([C@H]2CC(=O)C=C(c3ccc(OC)cc3OC)C2)cc1 — 5-fold lower, 0.681 µM
- CC1(C(=O)NCc2ccco2)Cc2c(-c3ccc4c(c3)OCO4)ccnc2O1 (stereo not drawn) — 1.8-fold lower, 1.88 µM
- O=C1/C(=C\c2ccc(O)cc2)SC(=S)N1Cc1ccccc1 — 6-fold higher, 20.5 µM
- CN(CCOc1ccc(Cl)cc1)C(=O)c1cccc(S(=O)(=O)N2CCN(c3ccccc3)CC2)c1 — 4.7-fold higher, 16 µM
- COc1cc(C(=O)c2cocc2C(=O)c2ccc3c(c2)OCO3)cc(OC)c1OC — 7.6-fold lower, 0.451 µM
- N#CC1c2ccccc2-c2ccccc2N1C(=O)c1ccccc1 (stereo not drawn) — within 1.5-fold, 4.85 µM
- CC(C)(C)C1COc2ccccc2N1C(=O)c1cccc(Cl)c1 (stereo not drawn) — 2.1-fold lower, 1.63 µM
- COc1ccc(-c2ccnc(-c3ccc(O)cc3)n2)cc1 — 2.4-fold lower, 1.43 µM
- Cc1cc(C(=O)N2CC=C(c3ccccc3)CC2)c2ccccc2n1 — 5.2-fold lower, 0.66 µM
- CN1/C(=C\C=C2/SC(=S)N(CC(=O)O)C2=O)C(C)(C)c2ccccc21 — 4.7-fold higher, 16 µM
- COc1cc(OC)cc(C(=O)N2CC(=O)Nc3ccccc32)c1 — 1.6-fold lower, 2.1 µM
- CCC1=Nc2cc(C(=O)NCc3cccnc3)ccc2Sc2ccc(C)cc21 — 1.9-fold higher, 6.64 µM
- Cc1cccc(C(=O)N(Cc2ccco2)c2c(N)n(Cc3ccccc3)c(=O)[nH]c2=O)c1 — higher, > 50 µM
- O=c1[nH]c(/C=C/c2ccccc2F)nc2ccccc12 — within 1.5-fold, 2.69 µM
- O=C1/C(=C\c2cc(Cl)c(O)c(Cl)c2)SC(=S)N1Cc1ccccc1 — within 1.5-fold, 3.15 µM
- CCN(c1cccc(C)c1)S(=O)(=O)c1ccc(-c2cc(C)no2)s1 — 1.7-fold higher, 5.94 µM
- COc1cccc(-c2cc3nc(-c4ccccc4)cc(=O)n3[nH]2)c1 — within 1.5-fold, 2.35 µM
- COC(=O)c1cc2c(=O)c3ccccc3oc2nc1/C=C/N(C)C — 3.5-fold lower, 0.984 µM
- O=C(N/N=C/c1cccs1)c1cccc(NC(=O)c2ccccc2Cl)c1 — 3.5-fold lower, 0.985 µM
- CCN(CC)CCCNc1ccc2ncn3c4ccc(O)cc4c(=O)c1c23 — 1.9-fold lower, 1.8 µM
- O=C(N/N=C/c1cc(Br)cc(Cl)c1O)c1ccc2c(c1)OCO2 — 2.9-fold higher, 9.98 µM
- COc1cc(-c2nccc3cc4c(cc23)OCO4)cc(OC)c1OC — 1.8-fold higher, 6.02 µM
- CC[n+]1c(-c2ccccc2)c2cc(N)ccc2c2ccc(N)cc21 — 2.3-fold higher, 7.74 µM
- Cc1cccc(N2CCN(C(=O)c3c(-c4ccccc4)noc3C)CC2)c1C — within 1.5-fold, 2.59 µM
- Cc1ccc(C(=O)N/N=C/c2cc(Br)ccc2O)cn1 — 5.1-fold lower, 0.672 µM
- CC(=O)OCCn1c2nc(=O)[nH]c(=O)c-2nc2cc(C)c(C)cc21 — 4.5-fold higher, 15.3 µM
- Cc1nn2cc(-c3cccc(Cl)c3)cnc2c1Br — within 1.5-fold, 3.81 µM
- COc1ccc(-c2ccc3oc(-c4ccc(OC)cc4)c(C#CCO)c3c2)cc1 — higher, > 50 µM
